Measured values: PMC10731637, “Design, Synthesis, and Biological Studies of Flavone-Based Esters and Acids as Potential P450 2A6 Inhibitors” (Chemical Research in Toxicology, 2023)

molecular target: T1, Cytochrome P450 2A6 (CYP2A6) (Homo sapiens, UniProt P11509); test: Vivid CYP450 fluorescence inhibition assay with CYP2A6 baculosomes, 10-point dose-response; assay type: biochemical
T1 sequence (P11509 1-494): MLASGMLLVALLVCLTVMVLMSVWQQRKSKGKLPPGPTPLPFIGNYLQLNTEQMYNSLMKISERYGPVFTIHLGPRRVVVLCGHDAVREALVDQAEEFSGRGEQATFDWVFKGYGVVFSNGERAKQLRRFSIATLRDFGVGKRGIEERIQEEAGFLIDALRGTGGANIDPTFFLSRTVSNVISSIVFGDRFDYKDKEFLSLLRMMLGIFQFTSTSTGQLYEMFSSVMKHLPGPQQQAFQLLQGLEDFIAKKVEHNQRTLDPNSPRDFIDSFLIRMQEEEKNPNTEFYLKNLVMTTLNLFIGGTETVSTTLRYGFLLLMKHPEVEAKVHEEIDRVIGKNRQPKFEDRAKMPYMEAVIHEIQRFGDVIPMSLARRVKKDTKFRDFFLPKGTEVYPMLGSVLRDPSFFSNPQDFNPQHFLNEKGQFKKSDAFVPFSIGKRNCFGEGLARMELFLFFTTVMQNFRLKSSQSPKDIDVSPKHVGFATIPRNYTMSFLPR

IC50 [µM]	Structure (SMILES)
37.9	CCOC(=O)COc1ccccc1-c1cc(=O)c2ccccc2o1 [compound 1, Ethyl 2-(2-(4-Oxo-4H-chromen-2-yl)phenoxy)acetate]
4.61	CCOC(=O)COc1c(-c2ccccc2)oc2ccccc2c1=O [compound 2, Ethyl 2-((4-Oxo-2-phenyl-4H-chromen-3-yl)oxy)acetate]
1.57	O=C(O)COc1ccccc1-c1cc(=O)c2ccccc2o1 [compound 6, 2-(2-(4-Oxo-4H-chromen-2-yl)phenoxy)acetic Acid]
